Laboratory results published in the NIST ThermoML archive (doi:10.1016/j.tca.2005.10.008).

How the values were obtained:
[1] = Liquid; for mass density: 101.33 kPa, Pycnometric method; for viscosity / speed of sound: 101.3 kPa; for viscosity: Capillary tube (Ostwald / Ubbelohde) method; for speed of sound: Linear variable-path acoustic interferometer; for Normal boiling temperature: Distillation
[2] = xn = mol fraction of the nth substance listed; details: 303.15 K, 101 kPa, Liquid; for viscosity: Capillary tube (Ostwald / Ubbelohde) method; for excess molar volume: Direct dilatometry; for speed of sound: Linear variable-path acoustic interferometer

c1ccc2c(c1)CCCC2 [1,2,3,4-tetrahydronaphthalene]
[1]
Details | mass density [kg/m3] | speed of sound [m/s] | viscosity [mPa·s]
298.15 K | 965.89 | – | –
303.15 K | 955.44 | 1477 | 1.749

Details | Normal boiling temperature [°C]
[1] | 208.30

c1ccc2c(c1)CCCC2 [1,2,3,4-tetrahydronaphthalene] + CC(C)OC(C)C
[2]
Details | excess molar volume [m3/mol] | speed of sound [m/s] | viscosity [mPa·s]
x2 = 0 | – | 1477 | 1.749
x2 = 0.1358 | -7.08e-07 | 1396.1 | 1.445
x2 = 0.2509 | -1.135e-06 | 1342.5 | 1.223
x2 = 0.3997 | -1.459e-06 | 1276.3 | 0.976
x2 = 0.4474 | -1.505e-06 | 1253 | 0.904
x2 = 0.5718 | -1.503e-06 | 1191.8 | 0.739
x2 = 0.7163 | -1.261e-06 | 1119.7 | 0.578
x2 = 0.8473 | -8.13e-07 | 1054.2 | 0.46

CC(C)CC(C)(C)C [2,2,4-trimethylpentane]
[1], 303.15 K
Details | speed of sound [m/s] | viscosity [mPa·s]
– | 1060.8 | 0.455

CC(C)CC(C)(C)C [2,2,4-trimethylpentane] + CC(C)OC(C)C
[2], x2 = 0
Details | speed of sound [m/s] | viscosity [mPa·s]
– | 1060.8 | 0.455

c1ccccc1 [benzene]
[1]
Details | mass density [kg/m3] | speed of sound [m/s] | viscosity [mPa·s]
298.15 K | 873.64 | – | –
303.15 K | 868.39 | 1275.5 | 0.566

Details | Normal boiling temperature [°C]
[1] | 80.00

c1ccccc1 [benzene] + CC(C)OC(C)C
[2], x2 = 0
Details | speed of sound [m/s] | viscosity [mPa·s]
– | 1275.5 | 0.566

C1CCCCC1 [cyclohexane]
[1]
Details | mass density [kg/m3] | speed of sound [m/s] | viscosity [mPa·s]
298.15 K | 773.98 | – | –
303.15 K | 769.14 | 1231 | 0.793

Details | Normal boiling temperature [°C]
[1] | 80.80

C1CCCCC1 [cyclohexane] + CC(C)OC(C)C
[2], x2 = 0
Details | speed of sound [m/s] | viscosity [mPa·s]
– | 1231 | 0.793

C1CCC2CCCCC2C1 (stereo not given) [decahydronaphthalene]
[1]
Details | mass density [kg/m3] | speed of sound [m/s] | viscosity [mPa·s]
298.15 K | 879.14 | – | –
303.15 K | 868.5 | 1404 | 2.091

Details | Normal boiling temperature [°C]
[1] | 191.10

C1CCC2CCCCC2C1 (stereo not given) [decahydronaphthalene] + CC(C)OC(C)C
[2]
Details | excess molar volume [m3/mol] | speed of sound [m/s] | viscosity [mPa·s]
x2 = 0 | – | 1404 | 2.091
x2 = 0.1596 | -4e-07 | 1329 | 1.586
x2 = 0.2785 | -6.03e-07 | 1282.3 | 1.289
x2 = 0.4286 | -7.39e-07 | 1220.1 | 0.989
x2 = 0.4734 | -7.6e-07 | 1199.7 | 0.913
x2 = 0.6153 | -7.24e-07 | 1141.3 | 0.706
x2 = 0.7514 | -5.84e-07 | 1084.9 | 0.553
x2 = 0.8663 | -3.59e-07 | 1035.8 | 0.448

CC(C)OC(C)C [diisopropyl ether]
[1]
Details | mass density [kg/m3] | speed of sound [m/s] | viscosity [mPa·s]
298.15 K | 718.14 | – | –
303.15 K | 711.97 | 974.9 | 0.35

Details | Normal boiling temperature [°C]
[1] | 68.20

CC(C)OC(C)C [diisopropyl ether] + C1CCC2CCCCC2C1
[2], x1 = 1
Details | speed of sound [m/s] | viscosity [mPa·s]
– | 974.9 | 0.35

CC(C)OC(C)C [diisopropyl ether] + C1CCCCC1
[2]
Details | excess molar volume [m3/mol] | speed of sound [m/s] | viscosity [mPa·s]
x1 = 0.118 | 3.2e-08 | 1187.4 | 0.666
x1 = 0.2172 | 4.7e-08 | 1157.7 | 0.589
x1 = 0.357 | 6.3e-08 | 1117.9 | 0.513
x1 = 0.3972 | 6.6e-08 | 1106.9 | 0.494
x1 = 0.5029 | 6.9e-08 | 1080.7 | 0.452
x1 = 0.6777 | 6.3e-08 | 1041.6 | 0.403
x1 = 0.8199 | 3.9e-08 | 1011.6 | 0.373
x1 = 1 | – | 974.9 | 0.35

CC(C)OC(C)C [diisopropyl ether] + CC(C)CC(C)(C)C
[2]
Details | excess molar volume [m3/mol] | speed of sound [m/s] | viscosity [mPa·s]
x1 = 0.1561 | 1.43e-07 | 1047.6 | 0.441
x1 = 0.2397 | 2.09e-07 | 1040.4 | 0.432
x1 = 0.3083 | 2.28e-07 | 1034.5 | 0.422
x1 = 0.4565 | 2.79e-07 | 1022.6 | 0.405
x1 = 0.4804 | 2.75e-07 | 1019.7 | 0.4
x1 = 0.6222 | 2.5e-07 | 1007.5 | 0.38
x1 = 0.8133 | 1.54e-07 | 991.1 | 0.36
x1 = 0.8775 | 1.24e-07 | 985.6 | 0.355
x1 = 1 | – | 974.9 | 0.35
